From US20200254020A1, “Methods and Compositions for Modulating the WNT-Signaling Pathway as Treatments for Inflammatory Diseases” (UNIVERSITY OF SOUTH CAROLINA, priority 2019, published 2020)

Experiments:
Assay type in all cases: cell-based, human
PBMCs = assay: WNT10B signaling pathway initiation: rh-WNT10B added to PBMC cultures, proinflammatory gene expression and IFNγ ELISA; details: for expression of IFNγ at mRNA level / expression of Tbx-21 at mRNA level: vs un-activated PBMCs or PMA activated PBMCs without rh-WNT10B
Method: To analyze whether WNT 10B could influence the expression of proinflammatory genes, WNT signaling was initiated by adding recombinant human (rh)-WNT10B in PBMCs cultures. The PBMCs were isolated from healthy human individuals. Two million cells were cultured in 200 μl medium in a 96-well tissue culture plates as follows: First, the PBMCs were stimulated with Phorbol 12-myristate 13-acetate (PMA) (200 nM) for 6 hours following which, 200 ng/ml rh-WNT10B was added. Then, the PBMCs were harvested after 24 and 48 hours and used for RNA and whole cell lysate (WCL) extraction for further analysis. The culture supernatants were also collected for ELISA to detect IFNγ. The following combinations were used as controls: 1) PBMCs+PMA without WNT10B and 2) PBMCs+WNT10B without PMA.
Before activation of cells and to see whether pre-exposure of cells to WNT10B can influence inflammatory gene expression, WNT10B (200 ng/ml) was first added in all the culture with PBMCs. After 24 hours, PMA (200 nM) was added to activate the cells. The following condition was used for the control: PBMCs+WNT10B without PMA. The cells were then harvested 24 hours after addition of PMA.
To test if chronic presence of WNT 10B alone (without stimulation with PMA) can lead to increased expression of inflammatory genes in the PBMCs, PBMCs (2×10^6 cells/well, in 200 μl, in a 96-well plate) were cultured with rh-WNT10B (200 ng/ml) for 96 hours. Additional rh-WNT10B was added after every 24 hours of culture. Cells were harvested every 24 hours for RNA and whole-cell lysate isolation. Supernatants were also collected for performing ELISA.
ELISA for human IFNγ was performed on culture supernatants. The kit for ELISA was purchased from BioLegend Inc. (CA, USA) and assay was performed following the manufacturer's instructions. Reading for OD was performed in a Victor2TM, 1420 Multilabel Counter (Perkin Elmer, USA) plate reader.

WNT signaling pathway = assay: Blocking WNT signaling with IWR-1 in PMA-activated PBMCs, IFNγ expression; details: 10 μM IWR-1, 200 nM PMA
Method: To investigate whether WNT10B was directly responsible for the upregulation of IFNγ expression, the WNT signaling pathway was blocked using an inhibitor of WNT response-1 (IWR-1, Sigma-Aldrich, St. Louis, Mo., cat # I0161). IWR-1 inhibits WNT signaling by stabilizing AXIN1 and prevents its degradation. AXIN1 is an inhibitor of WNT signaling pathway30. PBMCs (2×106) from healthy controls were cultured overnight (˜18 hours) with 10 LM of IWR-1 in separate wells of a 96-well culture plate in 200 μl complete RPMI medium. The following day, PMA and IWR-1 (in a 10 μl volume) were added to the culture to reach a final concentration of 200 nM PMA and 10 μM IWR-1, respectively. After 6 hours, WNT10B was added to the designated wells. Cells were harvested after 24 and 48 hours of adding WNT10B for total RNA extraction. Culture supernatant was collected for ELISA. ELISA for human IFNγ was performed on culture supernatants. The kit for ELISA was purchased from BioLegend Inc. (CA, USA) and assay was performed following the manufacturer's instructions. Reading for OD was performed in a Victor2TM, 1420 Multilabel Counter (Perkin Elmer, USA) plate reader.

WNT10B = assay: Micro-RNA mimic assay: transfection of THP1 cells, WNT10B mRNA (qRT-PCR) and protein (western blot); details: 5 pmol per well mimic
Method: THP1 cells obtained from ATCC were cultured in complete RPMI medium containing 10% FBS, penicillin, and streptomycin, HEPES buffer and 2-mercaptoethanol. The incubation condition was at 37° C. and 5% CO2.
To investigate whether hsa-miR-7113-5p regulated expression of WNT10B, miRNA mimic transfection studies were performed in THP1 cells. Mimics and inhibitors of the miRNA were obtained from Qiagen Inc. and transfected into the cells by employing Lipofectamine RNAiMAX (Invitrogen, ThermoFisher Scientific, USA). One day prior to transfection, 2×10^5 THP1 cells were plated in a 24-well plate in 5001l complete RPMI medium. Mimic, inhibitor, and scrambled oligos were then added at an amount of 5 pmol per well. Cells were cultured for the indicated time after transfection and harvested for RNA and protein isolation. RNA samples were used for qRT-PCR based quantification of mRNAs and miRNAs. Whole-cell lysates were used for western blot analysis of miRNA target protein.
For the Western blot, anti-human-WNT10B was purchased from SIGMA-ALDRICH (cat # PRS4619). […] The total protein was not pre-quantified for loading onto the SDS-PAGE as the protein amount was to be normalized using an internal control. […] Protein bands were detected in a LI-COR blot detection system (Li-Cor Inc, Nebraska, USA).

[1] = PMA (200 nM) activated PBMCs, 200 ng/ml rh-WNT10B, 24 hours
[2] = PMA (200 nM) activated PBMCs, 200 ng/ml rh-WNT10B, 48 hours

rh-WNT10B: recombinant human (rh)-WNT10B added to PBMC cultures to initiate WNT signaling
protein level of IFNγ (PBMCs; PMA (200 nM) activated PBMCs, 200 ng/ml rh-WNT10B, 24 hours, ELISA on culture supernatant): significant increase
expression of IFNγ at mRNA level (PBMCs; [1]): significant increase
expression of Tbx-21 at mRNA level (PBMCs; [1]): significant increase
expression of IFNγ at mRNA level (PBMCs; [2]): significant increase
expression of Tbx-21 at mRNA level (PBMCs; [2]): significant increase
induction of inflammatory genes, including STAT3, STAT4, or IFNγ (PBMCs; rh-WNT10B (200 and 500 ng/ml) alone added to naïve PBMCs, without PMA): did not induce any inflammatory genes

O=C(Nc1cccc2cccnc12)c1ccc(N2C(=O)C3C(C2=O)[C@H]2C=C[C@@H]3C2)cc1 (stereo partly shown) [IWR-1, 4-(1,3,3a,4,7,7a-Hexahydro-1,3-dioxo-4,7-methano-2H-isoindol-2-yl)-N-8-quinolinyl-benzamide]
expression of IFNγ and other proinflammatory genes upon addition of WNT10B (WNT signaling pathway; WNT10B added after 6 hours): did not lead to increased expression
expression of IFNγ (WNT signaling pathway; compared to cells activated with PMA only): significantly downregulated

mimics of hsa-miR-7113-5p: Mimic of miRNA hsa-miR-7113-5p (UCCAGGGAGACAGUGUGUGAG, SEQ ID NO: 2) obtained from Qiagen Inc. (listed as RNA, chemistry not given here; listed as Homo sapiens)
level of WNT10B mRNA (WNT10B; qRT-PCR, compared to scrambled miRNA and miRNA-7113-5p-inhibitor treated groups): Significant reduction
level of WNT10B protein (WNT10B; western blot of whole-cell lysate after 72 hours, compared to scrambled miRNA and inhibitor groups): Significant reduction
